Laboratory results from PMC5554220, “A Novel Aldosterone Antagonist Limits Renal Injury in 5/6 Nephrectomy” (Scientific Reports, 2017).

Columns and labels:
[1] = target: T1, human androgen receptor (hAR) (Homo sapiens, UniProt P10275, DEL79-80/DUP470-473/R9G); test: Radioligand binding, [3H]mibolerone, hAR expressed in Sf9; conditions: hAR expressed in Sf9; [3H]mibolerone 0.3 nM; read-out: Mean Ki ± SEM hAR
T1 construct: made in house; host or cells: Sf9 insect cells (baculovirus)
T1 sequence (P10275 with tags, fused parts or gaps R9G/DEL79-80/DUP470-473): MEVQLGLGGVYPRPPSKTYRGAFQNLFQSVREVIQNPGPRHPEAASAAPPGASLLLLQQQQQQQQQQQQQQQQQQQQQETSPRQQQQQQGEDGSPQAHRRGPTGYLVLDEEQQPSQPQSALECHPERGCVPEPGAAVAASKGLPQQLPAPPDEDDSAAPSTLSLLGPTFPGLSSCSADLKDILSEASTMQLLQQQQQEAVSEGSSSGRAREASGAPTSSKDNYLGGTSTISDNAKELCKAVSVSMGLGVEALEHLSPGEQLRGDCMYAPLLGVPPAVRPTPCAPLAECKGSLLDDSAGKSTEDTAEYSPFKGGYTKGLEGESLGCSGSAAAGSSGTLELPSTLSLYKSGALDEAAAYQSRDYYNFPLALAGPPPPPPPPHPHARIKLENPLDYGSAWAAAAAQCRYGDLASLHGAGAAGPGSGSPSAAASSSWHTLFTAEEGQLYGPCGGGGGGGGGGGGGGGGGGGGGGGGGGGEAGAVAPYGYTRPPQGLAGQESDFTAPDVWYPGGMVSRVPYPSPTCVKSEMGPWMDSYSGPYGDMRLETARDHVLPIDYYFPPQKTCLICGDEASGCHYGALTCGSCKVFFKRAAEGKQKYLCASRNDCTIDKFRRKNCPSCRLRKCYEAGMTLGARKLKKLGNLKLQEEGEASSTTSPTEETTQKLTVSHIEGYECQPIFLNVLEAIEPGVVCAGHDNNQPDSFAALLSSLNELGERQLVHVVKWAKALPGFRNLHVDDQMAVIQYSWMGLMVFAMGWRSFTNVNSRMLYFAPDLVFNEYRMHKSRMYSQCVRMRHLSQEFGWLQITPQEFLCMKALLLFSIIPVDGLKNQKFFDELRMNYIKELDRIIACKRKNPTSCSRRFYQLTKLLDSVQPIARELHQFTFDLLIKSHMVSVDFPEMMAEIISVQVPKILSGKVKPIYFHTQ
Protocol: (§1) Full-length human mineralocorticoid receptor (hMR) to be used in radioligand binding was isolated from a human kidney cDNA library (Clontech, Palo Alto, CA). […] The hMR, hPR, and hAR cDNAs were subcloned in the eukaryotic expression vector pcDNA3. Methods for the expression of functionally active hMR, hAR and hPR utilizing the baculovirus expression system were described previously, [31].
(§2) Affinity of ligands to the soluble receptor was determined using vacuum filtration methods, preparing soluble receptors in 96-well Falcon polystyrene plates (BD Biosciences, Bedford, MA) in a total volume of 250 μl. […] Binding studies for ligands for hPR and hAR were determined using [1,2,6,7-3H(N)] […] Specific binding of 3H-progesterone for hPR and 3H-mibolerone for hAR was determined in the presence and absence of 1 μM mifepristone. Inhibition constants (Ki), were determined either from the Cheng-Prusoff equation[32], or directly using non-linear regression curve fitting to a three-parameter one-site competitive equation. […] Protein was measured using colorimetric detection and quantification of bicinchoninic acid (BCA Protein Assay, Pierce, Rockford, IL). […] Concentration response curves were analyzed statistically using a four-parameter logistic equation (Hill equation for sigmoid curves). […]

[2] = test system: human androgen receptor (hAR); test: as above; conditions: selectivity
Protocol: as §1, §2

[3] = target: T2, human mineralocorticoid receptor (hMR) (Homo sapiens, UniProt P08235); test: Radioligand binding, [3H]aldosterone, hMR Sf9 lysate, vacuum filtration
T2 construct: made in house; host or cells: Sf9 insect cells (baculovirus)
T2 sequence (P08235 1-984): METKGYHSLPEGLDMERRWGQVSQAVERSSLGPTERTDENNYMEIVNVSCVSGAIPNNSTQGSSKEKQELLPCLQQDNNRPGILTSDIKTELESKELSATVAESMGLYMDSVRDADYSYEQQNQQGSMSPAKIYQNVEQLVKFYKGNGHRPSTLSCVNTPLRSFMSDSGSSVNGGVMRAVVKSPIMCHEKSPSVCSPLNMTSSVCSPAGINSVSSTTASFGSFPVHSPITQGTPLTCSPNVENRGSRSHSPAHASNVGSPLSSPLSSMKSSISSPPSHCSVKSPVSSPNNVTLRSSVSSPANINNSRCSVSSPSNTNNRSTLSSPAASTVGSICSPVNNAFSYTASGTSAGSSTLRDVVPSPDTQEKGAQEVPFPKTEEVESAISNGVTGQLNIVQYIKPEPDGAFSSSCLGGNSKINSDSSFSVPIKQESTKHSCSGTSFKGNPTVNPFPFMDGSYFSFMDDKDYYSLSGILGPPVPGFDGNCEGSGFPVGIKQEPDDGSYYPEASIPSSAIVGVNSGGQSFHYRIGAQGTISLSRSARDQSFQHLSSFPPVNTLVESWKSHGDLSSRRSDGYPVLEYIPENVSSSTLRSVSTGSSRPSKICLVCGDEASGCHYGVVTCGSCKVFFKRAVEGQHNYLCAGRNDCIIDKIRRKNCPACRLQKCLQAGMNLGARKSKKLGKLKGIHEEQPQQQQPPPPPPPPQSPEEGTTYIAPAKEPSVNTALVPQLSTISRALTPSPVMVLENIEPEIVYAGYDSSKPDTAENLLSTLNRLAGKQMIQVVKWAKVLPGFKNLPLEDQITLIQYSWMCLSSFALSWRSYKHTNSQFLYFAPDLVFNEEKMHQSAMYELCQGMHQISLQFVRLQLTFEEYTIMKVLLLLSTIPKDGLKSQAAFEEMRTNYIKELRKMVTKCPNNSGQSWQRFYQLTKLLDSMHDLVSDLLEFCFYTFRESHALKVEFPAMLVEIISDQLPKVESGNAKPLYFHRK
Protocol: as §1, §2

SMILES: O=c1[nH]c2ccc(/C=C3\c4ccc(F)cc4COc4cc(F)ccc43)cc2[nH]1 [Ly]
- Ki [1]: 323 ± 101 nM
- Ratio of Ki's hAR: hMR [2]: 202
- Ki ([3]; hMR expressed in Sf9, [3H]aldosterone 0.5 nM, read-out: Mean Ki ± SEM hMR): 1.6 ± 0.3 nM
- Eple/Ly Ki ratio ([3]; hMR, 124/1.6): 77.5
